This is an account of results in patent US7943667B2, “Potentiating the effect of compound comprising nitric oxide” (Duke University, priority 2007, dated 2011).

Read-outs that look alike come from different tables or passages of the source.

Assay [1] in a line: Transwell air-liquid interface exposure to NO or ENO gas, intracellular NO signal (DAF-FM). Type of assay: cell-based. The note with it: NO or ENO gas 10 ppm for 4 hours; for NO signal produced by ENO or NO gas: buffer with 0.2 mM glutathione. The protocol:
Cells were plated onto rat-tail collagen coated plastic inserts in a transwell system. When cells were firmly adherent and intact in appearance by microscopy, usually 24 h after plating, cell inserts were incubated in DAF-FM diacetate for one hour, then rinsed in Hepes-buffered Hank's balanced salt solution without amino acids. Buffer was removed from the upper chamber of the transwell and replaced with phosphate-buffered saline containing 0.2 mM glutathione in order to mimic the glutathione levels found in human alveolar lining fluid. […] The volume added was a few microliters sufficient to produce a layer of buffer ˜2 micron in thickness, in an effort to model the alveolar lining fluid thickness in the mammalian lung. Cell inserts were incubated at air liquid interface for 30 minutes, then exposed to NO or ENO gas 10 ppm for 4 hours. Inserts were then placed into a fluorescent microplate reader to detect the intracellular NO signal.

For assay [2], the system named is Rat L2 (alveolar) cells, alveolar T1/T2 cells, alveolar macrophages. The assay is described as follows: NO gas at air-liquid interface, DAF-FM NO signal in L2, alveolar T1/T2 cells and alveolar macrophages. Type of assay: cell-based. The note with it: NO gas 10 ppm x 4 h; for L-Cys increase of NO signal (effect of competitors): competitors 10 mM x 1 h; for NO signal in all cell types: D- or L-Cys 50 μM, 4-8 wells/group. As for the experimental part: Rat L2 (alveolar) cells were used at passage 30. 1° alveolar T1/T2 cells were isolated from adult rat lungs with antibody-coated magnetic beads, and identified by immunocytochemistry (T1: T1^α, aquaporin-5; T2: pro-SP-C). Alveolar macrophages were obtained by lavage. Cells were plated onto collagen-coated transwells, grown submerged×2d, then incubated with DAF-FM to detect NO. Apical medium was replaced by buffer+glutathione 0.2 mM,±D-or L-Cys 50 μM±LAT competitors L-Leu or BCH, 10 mM×1 h then exposed to air or NO gas 10 ppm×4 h. Fluorescence was read in 4-8 wells/condition. LAT-1 expression was measured/RT-PCR in air or 95% O2-exposed newborn rat lung (day 2, 3, 4, 8).

The subject of assay [3] is Rat alveolar (L2) cells. The assay can be described thus: Intracellular NO signal (DAF-FM fluorescence) in L2 cells incubated with ENO. The class given is cell-based. Particulars: ENO 10 mM, L-Leu 10 mM; for ENO induced intracellular NO signal (DAF): L-Cys 0.5 mM, by 24 minutes, N=5/group, p<0.05. The protocol: (§1) Rat alveolar (L2) cells were located with DAF-FM (converted intracellularly to DAF; NO^++DAF→fluorescense), then incubated with ENO 10 mM+L-Cys 0.5 mM, L-Leu 10 mM (competitor for L-Cys entry via LAT1), or both L-Cys+L-Leu. DAF signal was measured at 5, 10, and 24 min. In parallel studies, S—NO was measured in L2 cell lysates after co-incubation with ENO 0.2 mM±L-Cys 0.5 mM±L-Leu 10 mM by ozone chemiluminescense (normalized to protein). LAT1 protein was detected by western and immunocytochemistry in 8d air or 95% O2—exposed rat lung.

The subject of assay [4] is Rat alveolar (L2) cells. The assay is described as follows: S-NO in L2 cell lysates by ozone chemiluminescence. Type of assay: cell-based. Particulars: for ENO induced SNO accumulation: ENO 0.2 mM ± L-Cys 0.5 mM ± L-Leu 10 mM, N=2/group. The protocol: as §1
Assay [5] is described as follows: Newborn piglet saline-lavage lung injury with pulmonary hypertension, pulmonary artery pressure. Type of assay: in vivo. Particulars: lungs lavaged with saline, inhaled NO 10 ppm, 56 Torr before treatment. The protocol:
Newborn piglet was anesthetized and a thoracotomy was performed after placing arterial and venous monitoring catheters. A catheter was placed in the pulmonary artery and flow sensors around the pulmonary artery were placed.

Assay [6] is described as follows: Working Example I: persistent pulmonary hypertension of the newborn. Type of assay: in vivo, human. Particulars: L-cysteine 36 micrograms/kg by nebulizer, then inhaled ethyl nitrite or nitric oxide 1-50 ppm; from 88%. The protocol:
A newborn is delivered at 41 weeks gestational age through thick meconium following a labor requiring augmentation with oxytocin. They are immediately noted at birth to experience respiratory distress and cyanosis. […] Their respiratory distress worsens requiring mechanical ventilation. […] The patient is treated with 36 micrograms/kg of L-cysteine by nebulizer attached to the inspiratory limb of the ventilator circuit, followed by initiation of inhaled ethyl nitrite or inhaled nitric oxide at 1-50 ppm. The patient SpO2 rises immediately from 88% to 100%, and systolic blood pressure improves. This example represents treatment of persistent pulmonary hypertension of the newborn.

Assay [7] has as its system lung cells. The assay is described as follows: S-nitrosothiol uptake in lung cells (LAT / PEPT2 transport). The class given is cell-based, rat. An excerpt: It was shown in a kidney cell line that transportation of extracellular S-nitrosothiols in the form of S-nitroso-L-cysteine through the L-type amnio acid transporter (LAT1) is necessary to achieve maximum intracellular S-nitrosothiol accumulation. It was also shown that eliminating the L-type amino acid transporter or blockade of the transporter severely limited the ability of extracellular S-nitroso-L-cysteine to gain entry into the kidney cell line. […] The results for kidney cell line were then obtained for umbilical endothelial cells. This reinforced our conception. We then performed exposures of rat pulmonary alveolar epithelial cells to a variety of S-nitrosothiol and nitric oxide donors and tested whether or not S-nitrosothiol and nitric oxide uptake required transnitrosylation of L-cysteine and uptake through L-type amino acid transport. In particular we conducted experiments using rat alveolar epithelial cells. […] We also tested the dipeptide transporter, PEPT2. […] When we added L-cysteine to the mixture, the high levels of S-nitrosothiol uptake in lung cells were restored, and this restoration was blocked when we blocked function of L-type amino acid transporter by competition or inhibition.
We conducted additional studies to determine if an alternate transporter, namely PEPT2, could account for some of the S-nitrosothiol uptake in lung cells. […] This confirmed the importance of L-cysteine as the carrier which is necessary to achieve high levels of S-nitrosothiols in lung cells. We confirmed these finding in freshly isolated lung cells as well.

The subject of assay [8] is rat alveolar pulmonary epithelial cells (L2 and Type II). The assay can be described thus: SNO/NO accumulation with NO donors in alveolar epithelial cells. The class given is cell-based. The note with it: L-Cys added to NO donors; inhibited by co-incubation with LAT competitors. The protocol: We carried out experiments showing that addition of L-Cys to NO donors increased SNO/NO accumulation that was inhibited by co-incubation with LAT competitors in rat alveolar pulmonary epithelial cells (L2 and Type II). These are described in Granilla, O. M., AM. J. Physiol Lung Cell Mol. Physiol 295: L38-L43 (first published Apr. 25, 2008).

Assay [9] is described as follows: Working Example II: prevention of bronchopulmonary dysplasia in a premature newborn. The class given is in vivo, human. Particulars: L-cysteine 36 micrograms/kg daily with continuous ethyl nitrite 1-10 ppm for 14 days. An excerpt:
The patient is born at 25 weeks estimated gestational age following preterm prolonged spontaneous rupture of amniotic membranes. The patient requires immediate endotracheal intubation at birth as well as mechanical ventilation. The patient receives the usual neonatal intensive care including exogenous surfactant administration, indomethacin prophylaxis for prevention of intraventricular hemorrhage, and intravenous antibiotics. Because the patient is at high risk to develop bronchopulmonary dysplasia, the patient is treated each day with a single dose of 36 micrograms/kg of L-cysteine and continuous ethyl nitrite at 1-10 ppm for a total of 14 days. (This is done via […] unless the patient should be extubated, in which case the inhaled ethyl nitrite is delivered via nasal cannula and the L-cysteine is administered once a day via nebulizer) Within five days, the patient is weaned from mechanical ventilation and extubated to nasal continuous positive airway pressure, continuing to receive inhaled […] 1-10 ppm, and daily L-cysteine at 36 micrograms/kg. […], the continuous positive airway pressure is discontinued. […] the patient is discharged home, without any diagnosed complications of extreme prematurity. This example represents prevention of development of bronchopulmonary dysphasia in a premature newborn infant.

In the case of `NC1(C(=O)O)CC2CCC1C2` (stereo not drawn) [BCH, 2-aminobicyclo-(2,2,1)-heptane-2-carboxylic acid], the “L-cysteine augmentation of NO signal (effect of LAT competitors)” value in assay [1] (with L-cysteine) is on record as “completely abolished”. Moreover, in assay [2], the “L-Cys increase of NO signal (effect of competitors)” value is “blocked”.

For the compound `N[C@H](CS)C(=O)O` [D-cysteine], the “NO signal produced by ENO or NO gas” value in [1] was “no effect”. For the same compound, in [2], the “NO signal in all cell types” value was “not”.

Take `CCON=O` [ENO, ethyl nitrite]: the “intracellular NO^+ (DAF)” value in [3] (5, 10 and 24 min) is on record as “increased”. In assay [4] (ENO 0.2 mM), the “intracellular SNO” value was “increased”.

On to `[N]=O` [Inhaled nitric oxide, nitric oxide], for which the “peak pulmonary pressure / pulmonary artery pressure” value in [5] stood at 45 Torr.

Regarding `N[C@@H](CS)C(=O)O` [L-cysteine], in assay [6], the SpO2 came to 100%. Moreover, the “S-nitrosothiol signal / accumulation in lung cells” value in [7] is “restored”. Besides, in assay [8], the SNO/NO accumulation result was “increased”. For the same compound, the “NO signal produced by ENO or NO gas” value in [1] is reported as “augmentation”. In assay [9], the “bronchopulmonary dysplasia at 36 weeks post conceptual age” value was “no evidence of bronchopulmonary dysplasia”. The “ENO induced intracellular NO signal (DAF)” value in [3] is reported as “augmented”. In addition, in assay [4], the “ENO induced SNO accumulation” value is “augmented”. Also, in assay [2], the “NO signal in all cell types” value is reported as “increased”.

Regarding `N[C@@H](CS)C(=O)NCC(=O)O` [L-cysteinyl-glycine], in assay [7], the “uptake in lung cells via dipeptide transporter PEPT2” value is “taken up”.

On to `CC(C)C[C@H](N)C(=O)O` [L-leucine], for which the “ENO induced intracellular NO signal (DAF)” value in assay [3] is “significantly less”. In addition, the “ENO induced SNO accumulation” value in [4] is on record as “did not augment”. Further, the “L-Cys increase of NO signal (effect of competitors)” value in [2] is “blocked”.

On to `N[C@@H](CSN=O)C(=O)NCC(=O)O` [S-nitroso-L-cysteinyl-glycine], for which the figures for the “S-nitrosothiol signal / accumulation in lung cells” value in assay [7] and in assay [7] (listed as S—NO-Cys-Gly) were “could not achieve high levels” and “did not significantly increase”, respectively.
